The source of these data is patent US7087373B2, “Methods for determining plasma free drug concentration by direct measurement of binding affinity of protease inhibitors to plasma proteins” (priority 2001, dated 2006).

For data set [1], the system named is HIV. As to the kind of experiment: Antiviral assay in the absence of AAG (Table 2). As to conditions: Human immunodeficiency virus 1. It is filed as cell-based. An excerpt: In table below, a data table with the binding affinity of 3 PI's to AAG (Ka), their free drug concentrations, calculated IC50s, and calculated efficacy were extracted from the ITC results and compared to IC50s from an antiviral assay in the absence of AAG.

Another data set deals with AAG. The data set can be described thus: Calculation of IC50 in presence of AAG, free drug concentration and efficacy from ITC Ka. Set-up: species or system human. As to conditions: for Free drug Concentration: calculated from ITC results; for IC50: read-out: Predicted IC50 @ 1 mg/mL AAG, calculated from Ka and IC50 without AAG. From the text: The quantification of the concentration of protease inhibitor in free form maybe performed by direct measurement of binding affinity Kd using isothermal titration calorimetry; and calculating the concentration of protease inhibitor in free form using the formula:
[formula] where Pt and Lt, are total protein and drug concentrations, and Kd is the equilibrium dissociation constant obtained in step (iii).
[formula] where PL is the protein-bound concentration of PIs, L0 and P0 are the total concentration of PIs and plasma protein, Kα and n are the binding constants and number of binding sites, respectively.
The quantification of the antiviral activity or EC50 value of a protease inhibitor in the presence of at least one plasma protein may be performed by direct measurement of binding affinity Ka using isothermal titration calorimetry; and calculating the antiviral activity or EC50 value of the protease inhibitor using the formula: […]
The quantification of the in vivo efficacy of a protease inhibitor in human plasma may be performed by direct measurement of binding affinity Ka using isothermal titration calorimetry; calculating the concentration of protease inhibitor in free form using the formulas described above; and calculating the in vivo efficacy of the protease inhibitor in human plasma using the formula: […]

For data set [2], the system named is AAG (human α1-acid glycoprotein). The data set can be described thus: Isothermal titration calorimetry (ITC) of PI binding to AAG. As to conditions: for Ka to AAG: ITC, Table 2; for binding to AAG (titration profile): 80 μM PI into 12 μM, 1.45 mL of AAG; for Ka: binding to AAG, 37° C., 20 mM phosphate buffer, pH 7.4, average of duplicate experiments. How it is done:
Briefly, the isothermal titration calorimetry (ITC) measurements are designed to obtain primarily the enthalpy of each complex formation and their stoichiometries. The heats of each reaction are determined by integration of the peaks observed. After the contribution from the heat of dilution of each injection is subtracted, the heat is plotted against the molar ratio of PIs to AAG. The binding constant (Ka), enthalpy of binding (ΔH^0), and stoichiometry (N) of the formation of complex are determined by fitting the binding isotherm against the binding equation using an independent binding model. Data analysis may be carried out with, for example, MicroCal ORIGN software, usually provided with the instrument.
Binding experiments were run using Isothermal Titration Calorimetry (ITC) to measure bound and unbound protease inhibitors.
Sample preparation: Solutions of AAG and its variants for ITC experiments were made up in 20 mM […] buffer, pH 7.4. All compounds were prepared as stock solution of 20 mM or 25 mM in DMSO and thereafter diluted to desired concentration in the same buffer. For all ITC experiments, the percentage of DMSO is below 1%.
ITC Experiments: The isothermal titration measurements of the binding of various PIs to AAG can be typically carried out at 37° C. using a VP-ITC titration calorimeter (MicroCal, Northampton, Mass.). The instrument was electrically calibrated by means of a standard electric pulse as recommended by the manufacturer. […] A 300 μL syringe was used for the titrant, mixing was effected by stirring this syringe at 300 rpm during equilibration and experiment. Typically after a preliminary 2 μL injection, 25 injections of 10 μL each were performed with a 250s interval between injections in a single titration. The reference cell of the calorimeter filled with water, acts as a thermal reference to the sample cell. […] All solutions were degassed before titrations to reduce the noise. The buffer contained 20 mM sodium phosphate, pH 7.4.
The area of each peak was integrated and corrected for the PI heat of dilution, which was estimated by a separate experiment by injecting the PI into the buffer. By fitting the titration curve with a nonlinear least-squares method, the enthalpy change ΔH^0, and the binding constant Ka of PI binding to AAG can be estimated with the assumption of an independent binding site model.
The values provided are the average of duplicate experiments. […] The ΔS^0 function was calculated from the standard thermodynamic relation ΔG^0=ΔH^0−TΔS^0.
In general terms: ITC needs no label: the signal is the heat of the interaction.

Data set [3] relates to HIV. As to conditions: cited from earlier work.
Data set [4] deals with HIV. As to the kind of experiment: Cell-based anti-HIV assay (tetrazolium-based, Pauwels et al.) in the absence of AAG and in the presence of 1 mg/mL AAG. As to conditions: change in experimental EC50, absence of AAG vs presence of 1 mg/mL AAG. On the procedure:
The values provided are the average of duplicate experiments. […] The standard free energies (ΔG^0) were obtained from the equation ΔG^0=−RT1nKa, in which the Ka is the binding constant at 37° C. The ΔS^0 function was calculated from the standard thermodynamic relation ΔG^0=ΔH^0−TΔS^0. […] Methods, 1988, 20(4), 309–21.

Data set [5] has as its system HIV. As to conditions: in vivo, Fischl et al.; extensive protein binding; cited from earlier work.
Where [6] appears, read: antiviral assay in the absence of AAG, read-out: IC50.

Where two headings read alike, the source gives them in different places.

On to `CC(C)CN(C[C@@H](O)[C@H](Cc1ccccc1)NC(=O)O[C@H]1CO[C@H]2OCC[C@H]21)S(=O)(=O)c1ccc2c(c1)OCO2` [Compound number 2], for which the results for the IC50 with HIV [1] (setting [6]) and with AAG were 0.8 nM and 22.7 nM, respectively. In addition, in the data set with AAG, the “Free drug Concentration” value is 1190 nM. The “Ka to AAG” value in data set [2] stood at 2.19E+06.
As for `COc1ccc(S(=O)(=O)N(CC(C)C)C[C@@H](O)[C@H](Cc2ccccc2)NC(=O)OC2CO[C@H]3OCC[C@@H]23)cc1` (some centres unmarked) [Compound number 3], in the data set on HIV [1] (setting [6]), the IC50 is 0.5 nM. In the data set with AAG, the “Free drug Concentration” value was 1710 nM and the IC50 is 8.25 nM. In addition, the “Ka to AAG” value in data set [2] is 1.24E+06.
As to `CC(C)CN(C[C@@H](O)[C@H](Cc1ccccc1)NC(=O)O[C@H]1CCOC1)S(=O)(=O)c1ccc(N)cc1` [APV, amprenavir], the “binding to AAG (titration profile)” value in data set [2] was “binds to AAG accompanied with an exothermic heat effect”.
For the compound `CC(C)CN(C[C@@H](O)[C@H](Cc1ccccc1)NC(=O)[C@H](CC(N)=O)NC(=O)c1ccc2ccccc2n1)C(=O)NC(C)(C)C` [SC-52151, telinavir], the “antiretroviral activity in vitro” value in the data set with HIV [3] (Fischl et al.) is listed as “potent”. Also, in the data set with HIV [4], the “Fold Inc. EC50” value turned out to be 29.2. Also, the clinical efficacy entry with HIV [5] is “lack of clinical efficacy”. Moreover, the Ka in data set [2] was 2.38 ± 0.60 10^6M^−1.
On to `CC(C)c1nc(CN(C)C(=O)N[C@H](C(=O)N[C@@H](Cc2ccccc2)C[C@H](O)[C@H](Cc2ccccc2)NC(=O)OCc2cncs2)C(C)C)cs1` [RTV, ritonavir], for which the “Fold Inc. EC50” value with HIV [4] is reported as 18.9. The Ka in data set [2] is reported as 1.55 ± 0.49 10^6M^−1.
Consider `Cc1c(O)cccc1C(=O)N[C@@H](CSc1ccccc1)[C@H](O)CN1C[C@H]2CCCC[C@H]2C[C@H]1C(=O)NC(C)(C)C` [NFV, nelfinavir], for which the “Fold Inc. EC50” value with HIV [4] turned out to be 22.9. Besides, in data set [2], the Ka is 2.35 ± 0.42 10^6M^−1.
For the compound `CC(C)CN(C[C@@H](O)[C@H](Cc1ccccc1)NC(=O)OC1CO[C@H]2OCC[C@@H]12)S(=O)(=O)c1ccc(N)cc1` (some centres unmarked) [Compound number 1], the IC50 in the data set with HIV [1] was 3 nM. In the data set on AAG, the “Free drug Concentration” value is 1300 nM and the IC50 is 74.6 nM. Besides, in data set [2], the “Ka to AAG” value turned out to be 1.92E+06.
With `CC(C)(C)NC(=O)[C@@H]1CN(Cc2cccnc2)CCN1C[C@@H](O)C[C@@H](Cc1ccccc1)C(=O)N[C@H]1c2ccccc2C[C@H]1O` [IDV, indinavir], in the data set on HIV [4], the “Fold Inc. EC50” value turned out to be 1.0. In data set [2], the “binding to AAG (titration profile)” value was “does not bind to AAG” and the Ka result is “No binding”.
For `CC(C)(C)NC(=O)[C@@H]1C[C@@H]2CCCC[C@@H]2CN1C[C@@H](O)[C@H](Cc1ccccc1)NC(=O)[C@H](CC(N)=O)NC(=O)c1ccc2ccccc2n1` [SQV, saquinavir], in the data set with HIV [4], the “Fold Inc. EC50” value is listed as 5.6. In addition, in data set [2], the Ka is on record as 0.34 ± 0.12 10^6M^−1.
As for `Cc1cccc(C)c1OCC(=O)N[C@@H](Cc1ccccc1)[C@@H](O)C[C@H](Cc1ccccc1)NC(=O)[C@H](C(C)C)N1CCCNC1=O` [LPV, lopinavir], the “Fold Inc. EC50” value with HIV [4] was found to be 37.1. Moreover, the Ka in data set [2] was 5.77 ± 0.72 10^6M^−1.
In the case of `CC(C)[C@H](NC(=O)N(C)Cc1ccccn1)C(=O)N[C@@H](Cc1ccccc1)[C@H](O)[C@H](O)[C@H](Cc1ccccc1)NC(=O)[C@@H](NC(=O)N(C)Cc1ccccn1)C(C)C` [A77003], the “antiviral efficacy as the concentration of AAG was increased” value in the data set on HIV [3] (in vitro, Bilello et al.) was “decreased”.
